Results as given in US10464925B2, “Methods to induce targeted protein degradation through bifunctional molecules” (Dana-Farber Cancer Institute, Inc., priority 2015, dated 2019).
Like-named read-outs stand apart in the source and are kept apart here.

Assays:
BRDT = BRDT (Homo sapiens, UniProt Q58F21); assay: BRDT IC50 (Table 4); type: binding; settings: read-out: IC50 (nM) BRDT
NGP = assay: Cell viability, ATPlite 72 hours; type: cell-based; settings: NGP cells, Table 4; read-out: IC50 (nM) NGP
DND41 = assay: Cell viability, ATPlite 48 hours, DND41; type: cell-based; settings: DND41 cells
CUTL1 = assay: Cell viability, ATPlite 48 hours, CUTLL1; type: cell-based; settings: CUTL1 cells
MOLT4 = assay: Cell viability, ATPlite 48 hours, MOLT4; type: cell-based; settings: Homo sapiens, MOLT-4; MOLT4 cells
BRD4 [1] = molecular target: T1, BRD4 (Homo sapiens, UniProt O60885); assay: BRD4 AlphaScreen; type: binding; set-up: […]; His tag (inferred from capture on Ni-coated acceptor beads)
CRBN = molecular target: T2, CRBN (Homo sapiens, UniProt Q96SW2); assay: Intracellular CRBN Engagement Assay (dFKBP7 rescue); type: cell-based; settings: competition with 80 nM dFKBP7, 3 hours; read-out: FKBP7 rescue (EC50)
T2 construct: endogenous in cells

CRBN-DDB1 = molecular target: T3, CRBN-DDB1 (Homo sapiens, UniProt Q96SW2); assay: CRBN-DDB1 Ligand-Displacement AlphaScreen Assay (thalidomide competition); type: binding;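 further: streptavidin donor and nickel chelate acceptor bead proximity signal after 30 min incubation, normalized with no-protein background as 0% and DMSO wells as 100% activity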
T3 construct: 6xHis (given for the complex); made in house; host or cells: Sf9 cells (Invitrogen), pFastBac

[2] = molecular target: T4, BRD4 adjoined to nanoluciferase (Nluc) (Homo sapiens, UniProt O60885+Q96SW2); assay: BRD4 Dual Luciferase Assay; type: cell-based; settings: for Emax: BRD4 remaining at Emax, read-out: BRD4− Emax (percent remaining);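 on all read-outs here: transduced reporter cells exposed to compound for 4 h, then Nluc and Fluc luminescence read, each normalized to DMSO controls and expressed as Nluc/Fluc ratio per well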
T4 construct: expressed in transfected cells

BRD4 [3] = molecular target: T1, BRD4; assay: BRD4 Cell Western (BRD4 levels in 293T cells, LiCOR); type: cell-based; set-up: BRD4 levels in the cells after the dBET treatment; endogenous in cells; settings: HEK-293T; read-out: BRD4 max degradation(%) Cell Western
797 = assay: Cell viability, 797 cells (Table 4); type: cell-based; settings: read-out: IC50 (nM) 797
[4] = system: IKZF1 adjoined to nanoluciferase (Nluc); assay: IKZF1 Dual Luciferase Assay; type: cell-based; set-up: Nluc/Fluc IKZF1 Max Degradation: unit: %; settings: 293 FT cells, 4 hours; for IC50: read-out: Nluc/Fluc IKZF1 IC50
[5] = biotin-thalidomide competition, read-out: THAL ALPHA (IC50)
[6] = 4 hours, read-out: max degradation (dual luc)
[7] = read-out: BRD4 max degradation(%) Dual Luciferase

CC[C@@H]1C(=O)N(C)c2cnc(Nc3ccc(C(=O)NCCCCCCCCNC(=O)COc4cccc5c4C(=O)N(C4CCC(=O)NC4=O)C5=O)cc3OC)nc2N1C1CCCC1 (stereo partly shown) [dBET8]
IC50 (BRDT): 820 nM
IC50 (NGP): 153 nM
IC50 (DND41): 47.2 nM
IC50 (CUTL1): 42 nM
IC50 (MOLT4): 88.5 nM

Cc1noc(C)c1-c1ccc(-c2nc3cnccn3c2NCC(=O)NCCCOCCOCCOCCCNC(=O)COc2cccc3c2C(=O)N(C2CCC(=O)NC2=O)C3=O)cc1 (stereo not shown) [dBET14]
IC50 (BRD4 [1]; read-out: BRD4 Alpha (IC50)): 8830 nM
IC50 (BRD4 [1]; read-out: IC50 (nM) BRD4): 8830 nM
EC50 (CRBN): 227 µM
IC50 (CRBN-DDB1; [5]): 0.0124 µM

Cc1c(C(=O)NCCCCNC(=O)COc2cccc3c2C(=O)N(C2CCC(=O)NC2=O)C3=O)sc2c1C(c1ccc(Cl)cc1)=N[C@@H](CC(=O)NCCCN1CCN(C)CC1)c1nnc(C)n1-2 (stereo partly shown) [dBET30]
Conc@Emax [2]: 50 µM
Dmax [2, 6]: 78.5%
Emax [2]: 26.2%
Dmax [2, 7]: 79%
EC50 (CRBN): 3140 µM
IC50 (CRBN-DDB1; [5]): 0.0265 µM

Cc1noc(C)c1-c1ccc(-c2nc3cnccn3c2NCC(=O)NCCCCNC(=O)COc2cccc3c2C(=O)N(C2CCC(=O)NC2=O)C3=O)cc1 (stereo not shown) [dBET13]
IC50 (BRD4 [1]; read-out: BRD4 Alpha (IC50)): 6930 nM
IC50 (BRD4 [1]; read-out: IC50 (nM) BRD4): 6930 nM
EC50 (CRBN): 220 µM
IC50 (CRBN-DDB1; [5]): 0.0107 µM

CC[C@@H]1C(=O)N(C)c2cnc(Nc3ccc(C(=O)NCCCCCCNC(=O)COc4cccc5c4C(=O)N(C4CCC(=O)NC4=O)C5=O)cc3OC)nc2N1C1CCCC1 (stereo partly shown) [dBET7]
Conc@Emax [2]: 0.5 µM
Dmax [2, 6]: 54.1%
Emax [2]: 43.7%
Dmax [2, 7]: 54%
IC50 (BRDT): 549 nM
Dmax (BRD4 [3]): 63%
IC50 (NGP): 131 nM
IC50 (DND41): 31.4 nM
IC50 (CUTL1): 29.2 nM
IC50 797: 16 nM
IC50 (MOLT4): 46.6 nM

Cc1sc2c(c1C)C(c1ccc(Cl)cc1)=N[C@@H](CC(=O)NCCNC(=O)COc1cccc3c1C(=O)N(C1CCC(=O)NC1=O)C3=O)c1nnc(C)n1-2 (stereo partly shown) [dBET3]
Conc@Emax [2]: 0.5 µM
Dmax [2, 6]: 12.7%
Emax [2]: 84%
Dmax [2, 7]: 13%
IC50 (BRDT): 88 nM
Dmax (BRD4 [3]): 31.6%

Cc1sc2c(c1C)C(c1ccc(Cl)cc1)=N[C@@H](CC(=O)NCCCCOc1cccc3c1C(=O)N(C1CCC(=O)NC1=O)C3=O)c1nnc(C)n1-2 (stereo partly shown) [dBET28]
Dmax [2, 6]: < 5%
Emax [2]: 91.2%
Dmax [2, 7]: > 5%
EC50 (CRBN): 7.73 µM
IC50 (CRBN-DDB1; [5]): 0.0171 µM

Cc1nc2ccccc2c(=O)n1C1CCC(=O)NC1=O [Compound D-9, 3-(2-methyl-4-oxoquinazolin-3(4H)-yl)piperidine-2,6-dione]
Nluc/Fluc IKZF1 Max Degradation [4]: 67.23
IC50 (CRBN-DDB1; read-out: CRBN alpha IC50): 14.5 µM

O=C1CCC(N2C(=O)c3cccc([N+](=O)[O-])c3C2=O)C(=O)N1 [Compound D-10, 2-(2,6-dioxopiperidin-3-yl)-4-nitroisoindoline-1,3-dione]
IC50 [4]: > 50 µM
IC50 (CRBN-DDB1; read-out: CRBN alpha IC50): 3.25 µM

Cc1cnc(Nc2ccc(N3CCN(C(=O)CCC(=O)NCCCCCCCCNC(=O)COc4cccc5c4C(=O)N(C4CCC(=O)NC4=O)C5=O)CC3)cc2)nc1Nc1cccc(S(=O)(=O)NC(C)(C)C)c1 (stereo not shown) [dBET33]
Dmax [2, 6]: 9.96%
Dmax [2, 7]: < 10%
IC50 (BRD4 [1]; read-out: BRD4 Alpha (IC50)): 4990 nM
IC50 (BRD4 [1]; read-out: IC50 (nM) BRD4): 4990 nM
IC50 797: 4000 nM

Cc1cccc2c1C(=O)N(C1CCC(=O)NC1=O)C2=O [Compound D-19, 2-(2,6-dioxopiperidin-3-yl)-4-methylisoindoline-1,3-dione]
Nluc/Fluc IKZF1 Max Degradation [4]: 63.37
IC50 (CRBN-DDB1; read-out: CRBN alpha IC50): 0.147 µM

Cc1sc2c(c1C)C(c1ccc(Cl)cc1)=N[C@@H](CC(=O)NCCCCCCNC(=O)COc1cccc3c1C(=O)N(C1CCC(=O)NC1=O)C3=O)c1nnc(C)n1-2 (stereo partly shown) [dBET5]
Dmax [2, 6]: 53%
Emax [2]: 44.7%
Dmax [2, 7]: 53%
IC50 (BRDT): 110 nM
Dmax (BRD4 [3]): 66%

Cc1sc2c(c1C)C(c1ccc(C#N)cc1)=N[C@@H](CC(=O)NCCCCNC(=O)COc1cccc3c1C(=O)N(C1CCC(=O)NC1=O)C3=O)c1nnc(C)n1-2 (stereo partly shown) [dBET17]
IC50 (BRDT): 217 nM
IC50 (NGP): > 20000 nM
IC50 (DND41): 17300 nM
IC50 (CUTL1): > 20000 nM
IC50 797: 5020 nM
IC50 (MOLT4): 13500 nM

O=C1CCC(N2C(=O)c3ccc([N+](=O)[O-])cc3C2=O)C(=O)N1 [Compound D-2, 2-(2,6-dioxopiperidin-3-yl)-5-nitroisoindoline-1,3-dione]
IC50 [4]: > 50 µM
IC50 (CRBN-DDB1; read-out: CRBN alpha IC50): 4.13 µM

O=C1CCC(N2C(=O)c3ccc(C(=O)NCc4ccccc4)cc3C2=O)C(=O)N1 [Compound D-15, N-benzyl-2-(2,6-dioxopiperidin-3-yl)-1,3-dioxoisoindoline-5-carboxamide]
IC50 [4]: > 50 µM
IC50 (CRBN-DDB1; read-out: CRBN alpha IC50): 0.619 µM

Cc1cnc(Nc2ccc(N3CCN(C(=O)CCC(=O)NCCCOCCOCCOCCCNC(=O)COc4cccc5c4C(=O)N(C4CCC(=O)NC4=O)C5=O)CC3)cc2)nc1Nc1cccc(S(=O)(=O)NC(C)(C)C)c1 (stereo not shown) [dBET34]
Dmax [2, 6]: 24%
Dmax [2, 7]: 24%
IC50 (BRD4 [1]; read-out: BRD4 Alpha (IC50)): 1540 nM
IC50 (BRD4 [1]; read-out: IC50 (nM) BRD4): 1540 nM
IC50 797: 3920 nM

CCN(CC)c1cccc2c1C(=O)N(C1CCC(=O)NC1=O)C2=O [Compound D-21, 4-(diethylamino)-2-(2,6-dioxopiperidin-3-yl)isoindoline-1,3-dione]
Nluc/Fluc IKZF1 Max Degradation [4]: 17.98
IC50 (CRBN-DDB1; read-out: CRBN alpha IC50): 0.164 µM

O=C1CCC(N2C(=O)c3cccc(CNC(=O)C4CC4)c3C2=O)C(=O)N1 [Compound D-22, N-((2-(2,6-dioxopiperidin-3-yl)-1,3-dioxoisoindolin-4-yl)methyl)cyclopropanecarboxamide]
Nluc/Fluc IKZF1 Max Degradation [4]: 52.96
IC50 (CRBN-DDB1; read-out: CRBN alpha IC50): 0.375 µM

CC(C)Nc1cccc2c1C(=O)N(C1CCC(=O)NC1=O)C2=O [Compound D-18, 2-(2,6-dioxopiperidin-3-yl)-4-(isopropylamino)isoindoline-1,3-dione]
Nluc/Fluc IKZF1 Max Degradation [4]: 41.1
IC50 (CRBN-DDB1; read-out: CRBN alpha IC50): 0.0253 µM

O=C1CCC(N2C(=O)c3ccc(NCc4ccccc4)cc3C2=O)C(=O)N1 [Compound D-25, 5-(benzylamino)-2-(2,6-dioxopiperidin-3-yl)isoindoline-1,3-dione]
IC50 [4]: > 50 µM
IC50 (CRBN-DDB1; read-out: CRBN alpha IC50): 0.0589 µM

Cc1nc2ccccc2c(=O)n1C1CC(=O)NC1=O [Compound D-11, 3-(2-methyl-4-oxoquinazolin-3(4H)-yl)pyrrolidine-2,5-dione]
IC50 [4]: > 50 µM
IC50 (CRBN-DDB1; read-out: CRBN alpha IC50): 126 µM

Cc1cnc(Nc2ccc(N3CCN(C(=O)CCC(=O)NCCCCNC(=O)COc4cccc5c4C(=O)N(C4CCC(=O)NC4=O)C5=O)CC3)cc2)nc1Nc1cccc(S(=O)(=O)NC(C)(C)C)c1 (stereo not shown) [dBET32]
Dmax [2, 6]: 50%
Dmax [2, 7]: 50%
IC50 (BRD4 [1]; read-out: BRD4 Alpha (IC50)): 3300 nM
IC50 (BRD4 [1]; read-out: IC50 (nM) BRD4): 3300 nM
IC50 797: 5730 nM

Cc1c(CC#N)sc2c1C(c1ccc(Cl)cc1)=N[C@@H](CC(=O)NCCCCNC(=O)COc1cccc3c1C(=O)N(C1CCC(=O)NC1=O)C3=O)c1nnc(C)n1-2 (stereo partly shown) [dBET19]
Dmax [2, 6]: -1.3%
Emax [2]: 93.3%
Dmax [2, 7]: > 5%
IC50 (BRD4 [1]; read-out: BRD4 Alpha (IC50)): 212 nM
IC50 (BRD4 [1]; read-out: IC50 (nM) BRD4): 212 nM
IC50 (BRDT): 1130 nM
EC50 (CRBN): 4330 µM
IC50 (CRBN-DDB1; [5]): 0.00362 µM
IC50 797: > 20000 nM

CC(=O)Nc1ccc2c(c1)C(=O)N(C1CCC(=O)NC1=O)C2=O [Compound D-5, N-(2-(2,6-dioxopiperidin-3-yl)-1,3-dioxoisoindolin-5-yl)acetamide]
IC50 [4]: > 50 µM
IC50 (CRBN-DDB1; read-out: CRBN alpha IC50): 0.266 µM

CCN(CC)c1ccc2c(c1)C(=O)N(C1CCC(=O)NC1=O)C2=O [Compound D-27, 5-(diethylamino)-2-(2,6-dioxopiperidin-3-yl)isoindoline-1,3-dione]
IC50 [4]: > 50 µM
IC50 (CRBN-DDB1; read-out: CRBN alpha IC50): 0.2 µM
